Source: ChEMBL document CHEMBL1201862, “PubChem BioAssay data set” (2004)
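Each compound was tested at five concentrations against cells in 96-well plates for 48 hours. GI50: concentration for 50% inhibition of growth.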 Activity calls are given as the source filed them. Rule as the data show it: active = GI50 up to about 1.1 µM and inactive = higher.

Tests used:
Assay in all cases: DTP human tumour cell line panel, 48 h
ACHN = test system: ACHN
CAKI-1 = test system: CAKI-1
DU-145 = test system: DU-145
HCC 2998 = test system: HCC 2998
HCT-15 = test system: HCT-15
HOP-92 = test system: HOP-92
IGROV-1 = test system: IGROV-1
MDA-MB-231 = test system: MDA-MB-231
MDA-MB-435 = test system: MDA-MB-435
Malme-3M = test system: Malme-3M
NCI-H460 = test system: NCI-H460
OVCAR-5 = test system: OVCAR-5
RXF 393 = test system: RXF 393
SK-OV-3 = test system: SK-OV-3
SNB-19 = test system: SNB-19
SNB-75 = test system: SNB-75
T47D = test system: T47D
U-251 = test system: U-251
UO-31 = test system: UO-31
SF-539 = test system: SF-539

Row | Compound | GI50 (ACHN) | GI50 (CAKI-1) | GI50 (DU-145) | GI50 (HCC 2998) | GI50 (HCT-15) [µM] | GI50 (HOP-92) | GI50 (IGROV-1) | GI50 (MDA-MB-231) | GI50 (MDA-MB-435) | GI50 (Malme-3M) | GI50 (NCI-H460) | GI50 (OVCAR-5) | GI50 (RXF 393) | GI50 (SK-OV-3) | GI50 (SNB-19) | GI50 (SNB-75) | GI50 (T47D) | GI50 (U-251) | GI50 (UO-31) | GI50 (SF-539)
1 | CCOC(=O)c1sc2nc(SC)nc3c2c1NCN3c1ccccc1Cl | 55.1 µM (inactive) | 50.8 µM (inactive) | 75.3 µM (inactive) | 56.5 µM (inactive) | 71.1 | 25.3 µM (inactive) | 63 µM (inactive) | 76.4 µM (inactive) | > 100 µM (inactive) | 31.8 µM (inactive) | 30.7 µM (inactive) | > 100 µM (inactive) | 19.3 µM (inactive) | 56.6 µM (inactive) | 48.3 µM (inactive) | 24.8 µM (inactive) | 23.7 µM (inactive) | 43.8 µM (inactive) | 70.5 µM (inactive) | 
2 | C=CCC(CCC(C)=O)(C(=O)OCC)C(=O)OCC | > 100 µM (inactive) | > 100 µM (inactive) | > 100 µM (inactive) | > 100 µM (inactive) | > 100 | > 100 µM (inactive) | > 100 µM (inactive) | > 100 µM (inactive) | > 100 µM (inactive) | > 100 µM (inactive) | > 100 µM (inactive) | > 100 µM (inactive) | > 100 µM (inactive) | > 100 µM (inactive) | > 100 µM (inactive) | > 100 µM (inactive) | > 100 µM (inactive) | > 100 µM (inactive) | > 100 µM (inactive) | > 100 µM (inactive)
3 | CC1=CC(=O)N(n2c(Cc3ccccc3)n[nH]c2=O)C1=O | > 100 µM (inactive) | > 100 µM (inactive) | > 100 µM (inactive) | > 100 µM (inactive) | > 100 | > 100 µM (inactive) | > 100 µM (inactive) | > 100 µM (inactive) | > 100 µM (inactive) | > 100 µM (inactive) | > 100 µM (inactive) | > 100 µM (inactive) | > 100 µM (inactive) | > 100 µM (inactive) | > 100 µM (inactive) |  | 98.4 µM (inactive) | > 100 µM (inactive) | > 100 µM (inactive) | > 100 µM (inactive)
4 | COC1(OC)C[C@H](C)[C@@]23O[C@]24c2cc(O)c5c(c2N[C@H]3C#C/C=C\C#C[C@]14O)C(=O)c1ccccc1C5=O |  | 0.005 µM (active) | 0.005 µM (active) | 0.00805 µM (active) | 0.005 | 0.00107 µM (active) | 0.0148 µM (active) | 0.0142 µM (active) | 0.00703 µM (active) | 0.005 µM (active) | < 0.001 µM (active) | 0.00692 µM (active) | 0.005 µM (active) | < 0.001 µM (active) | 0.005 µM (active) | 0.005 µM (active) | 0.005 µM (active) | 0.005 µM (active) | 0.005 µM (active) | 
5 | COC(=O)[C@]12CCC(C)(C)C[C@H]1C1=CC[C@@H]3[C@@]4(C)CC[C@H](OC5OC(CO)C(O)C(O)C5OC5OC(CO)C(O)C(O)C5O)C(C)(C)[C@@H]4CC[C@@]3(C)[C@]1(C)CC2 (some centres undefined) | 7.55 µM (inactive) | 8.81 µM (inactive) | 12 µM (inactive) | 14.8 µM (inactive) | 12.5 | 3.91 µM (inactive) | 14.4 µM (inactive) | 2.65 µM (inactive) | 7.6 µM (inactive) | 11.9 µM (inactive) | 14.5 µM (inactive) | 16.6 µM (inactive) | 5.75 µM (inactive) | 20.5 µM (inactive) | 14.3 µM (inactive) | 13.5 µM (inactive) | 18.3 µM (inactive) | 13.2 µM (inactive) | 3.4 µM (inactive) | 
6 | CCc1cn(C2CC(CO)C(CO)S2)c(=O)[nH]c1=O (centres undefined) | > 100 µM (inactive) | > 100 µM (inactive) | > 100 µM (inactive) | > 100 µM (inactive) | > 100 | > 100 µM (inactive) | > 100 µM (inactive) | > 100 µM (inactive) | > 100 µM (inactive) | > 100 µM (inactive) |  | > 100 µM (inactive) | > 100 µM (inactive) | > 100 µM (inactive) | > 100 µM (inactive) | > 100 µM (inactive) | > 100 µM (inactive) | > 100 µM (inactive) | > 100 µM (inactive) | > 100 µM (inactive)
7 | Nc1ncc(Cc2nn3c(COc4ccc(Cl)cc4)nnc3s2)s1 | 0.0543 µM (active) | > 100 µM (inactive) | > 100 µM (inactive) | > 100 µM (inactive) | 0.748 | > 100 µM (inactive) | > 100 µM (inactive) | > 100 µM (inactive) | > 100 µM (inactive) | 3.61 µM (inactive) | > 100 µM (inactive) | > 100 µM (inactive) | > 100 µM (inactive) | > 100 µM (inactive) | > 100 µM (inactive) | > 100 µM (inactive) | > 100 µM (inactive) |  | > 100 µM (inactive) | > 100 µM (inactive)
8 | CC(C)NC(=O)OCc1c(COC(=O)NC(C)C)n(C)c2c1ccc1ccsc12 | 3.05 µM (inactive) | 1.81 µM (inactive) | 4.76 µM (inactive) | 14.4 µM (inactive) | 9.25 | 10.1 µM (inactive) | 12.5 µM (inactive) | 16.7 µM (inactive) | 7.35 µM (inactive) | 4.36 µM (inactive) | 3.24 µM (inactive) | 17 µM (inactive) | 6.98 µM (inactive) | 16.2 µM (inactive) | 10.8 µM (inactive) | 6.78 µM (inactive) | 15.5 µM (inactive) | 8.45 µM (inactive) | 7.1 µM (inactive) | 
9 | OC(C/C=N/Nc1ccccc1)(C(F)(F)Cl)C(F)(F)Cl | 4.49 µM (inactive) | 7.43 µM (inactive) | > 10 µM (inactive) | 4.12 µM (inactive) | 5.2 | 7.35 µM (inactive) | 6.76 µM (inactive) | 4 µM (inactive) | 7.35 µM (inactive) | > 10 µM (inactive) | 5.53 µM (inactive) |  | 6.75 µM (inactive) | > 10 µM (inactive) | > 10 µM (inactive) | 9.91 µM (inactive) | 7.53 µM (inactive) | > 10 µM (inactive) | 9.98 µM (inactive) | > 10 µM (inactive)
10 | O=C(/C=C/C(=O)N1CCCC1)N1CCCC1 | > 100 µM (inactive) | > 100 µM (inactive) | > 100 µM (inactive) | > 100 µM (inactive) | > 100 | > 100 µM (inactive) | > 100 µM (inactive) | > 100 µM (inactive) | > 100 µM (inactive) | > 100 µM (inactive) | > 100 µM (inactive) | > 100 µM (inactive) | > 100 µM (inactive) | > 100 µM (inactive) | > 100 µM (inactive) |  | > 100 µM (inactive) | > 100 µM (inactive) | > 100 µM (inactive) | > 100 µM (inactive)
11 | Clc1ncnc2c1nc(C#Cc1ccccc1)n2Cc1ccccc1 | 65.2 µM (inactive) | 18.2 µM (inactive) | 7.52 µM (inactive) | 11.4 µM (inactive) | 4.81 | 27.1 µM (inactive) |  | 26.7 µM (inactive) | 11.9 µM (inactive) | > 100 µM (inactive) | 82.2 µM (inactive) | > 100 µM (inactive) | 16.3 µM (inactive) | > 100 µM (inactive) | 29.9 µM (inactive) | 25.8 µM (inactive) | 39.8 µM (inactive) | 17.6 µM (inactive) | 2.14 µM (inactive) | 29.9 µM (inactive)
